Where two headings read alike, the source gives them in different places. Some results are limits rather than exact numbers.

This is an account of results in PMC4468408 (ACS Medicinal Chemistry Letters, 2015).

One series has as its system human tumor xenografts. The settings on record: cited from earlier work.
The subject of a further series is major human CYP isozymes. The series is described as follows: CYP inhibition. It is filed as in vitro ADME.
Series [1] in a line: oral dosing of SD rats: exposure, GABAA related effects, toxicity. It is filed as in vivo, SD rat. The conditions noted are these: for effects attributable to GABAA binding (CNS effects): SD rats dosed orally; for toxicities observed at the maximum tolerated dose: SD rats, orally for seven consecutive days.
The nature of the next series: in vitro metabolism. It is filed as in vitro ADME.
The next series relates to P-gp. Description: P-gp substrate test in transfected MDCK cells. It is filed as in vitro ADME.
A short description of series [2]: brain total exposure in nude mice. The conditions noted are these: for AUC brain (AUC0–8h) / brain Cmax: sodium salts PO 30 mg/kg.
Series [3] is described as follows: pharmacokinetics in Sprague-Dawley rat. It is filed as in vivo. The conditions noted are these: IV 1 mg/kg, 10% 2-HP-β-CD.
For series [4] the following is noted: Phase I; cited from earlier work.
The nature of series [5]: stability in human S9 fraction. The format is in vitro ADME.

Turning to `O=C(O)c1ccc(Nc2ncc3c(n2)-c2ccc(Cl)cc2C(c2c(F)cccc2F)=NC3)cc1` [MLN8054 (8)], in the series with human tumor xenografts (multiple xenograft efficacy models in immunocompromised mice), the tumor growth inhibition result is on record as “Significant tumor growth inhibition, with no overt toxicity”. Moreover, the CYP inhibition entry with major human CYP isozymes (concentrations up to 100 μM) is reported as “no CYP inhibition is observed”. In series [1], the “effects attributable to GABAA binding (CNS effects)” value (from here on “effects attributable”) was “reversible central nervous system (CNS) effects”; the “toxicities observed at the maximum tolerated dose” value is “myelosuppression and mucositis”. Besides, the in vitro metabolism entry in “in vitro metabolism” is “predominantly through CYP1A2 and 3A4”. Also, the “substrate of P-gp” value in the series on P-gp is reported as “not a substrate of P-gp”. In series [2], the “AUC brain (AUC0–8h)” value was found to be 12500 ng·h/mL and the “brain Cmax” value was found to be 2600 ng/mL.
Molecule `COc1cc(Nc2ncc3c(n2)-c2ccc(Cl)cc2C(c2c(F)cccc2OC)=NC3)ccc1C(=O)O` [alisertib (10)] displayed a CL in series [3] of 10.4 mL min^–1 kg^–1. For the same molecule, in the series on human tumor xenografts (multiple human tumor xenograft models), the tumor growth inhibition result is “significant tumor growth inhibition”. For the same molecule, the IC50 in the series on major human CYP isozymes (human) was over 100 µM. In [1], the “effects attributable” value is given as “No effects attributable to GABAA binding were observed”; the “toxicities observed at the maximum tolerated dose” value was “myelosuppression and mucositis”. For the same molecule, in the series “in vitro metabolism”, the in vitro metabolism result is “low and is mediated through multiple CYP isoforms and UGTs”. For the same molecule, the incidence of somnolence result in [4] is “not dose limiting”. For the same molecule, in the series with P-gp, the “substrate of P-gp” value is “not a substrate of P-gp”. In addition, in series [2], the “AUC brain (AUC0–8h)” value was found to be 2000 ng·h/mL and the “brain Cmax” value worked out at 420 ng/mL.
On to `O=C(O)c1ccc(Nc2ncc3c(n2)-c2ccc(Cl)cc2C(c2ccccc2F)=NC3)cc1` [compound 7], for which, in [5], the “stability in human S9 fraction” value is listed as “stable in human S9 fraction”.
For the molecule `COc1cccc(F)c1C1=NCc2cnc(Nc3ccc(C(=O)O)cc3)nc2-c2ccc(Cl)cc21` [compound 9], the “effects attributable” value in series [1] is given as “No effects attributable to GABAA binding were observed”. Further, the “brain AUC reduction” value in [2] (compared with MLN8054) is on record as 3 fold. Besides, in series [2], the “AUC brain (AUC0–8h)” value amounted to 3500 ng·h/mL and the “brain Cmax” value came out at 930 ng/mL.

Broadly, the IC50 is the concentration at which inhibition is half-maximal. The low end stands for inhibition by little substance, the high end for a need for much substance.
